Experimental data published in patent US4370327A, “Cephalosporins and pharmaceutical compositions” (Boehringer Ingelheim GmbH, priority 1980, dated 1983).
In brackets after ≈: the same amount, converted by molar mass.

Legend:
[1] = system: Staphylococcus aureus SG 511; experiment: serial dilution test in the microtiter system, minimum inhibitory concentration; type: cell-based; conditions: SG511, St. aureus SG 511, 37° C., 18 to 20 hours
Protocol: (§1) The tests were performed using the serial dilution test in the microtiter system. The effect of the text compounds on bacteriostasis was examined at the following concentrations: 128, 64, 32, 16, 8, 4, 2, 1, 0.5, 0.25, 0.12, 0.06, 0.03, and 0.015 μg/ml. The nutrient medium consisted of 10 gm of peptone, 8 g of meat extract oxoid, 3 g of sodium chloride, and 2 g of sec. sodium phosphate diluted with distilled water to […] (pH 7.2-7.4). The age of the primary cultures was approximately 20 hours. The standardization of the bacteria suspension was effected using a photometer according to the method of Eppendorf (test tube .phi. 14 mm, filter 546 nm), using for comparison a barium sulfate suspension formed by the addition of 3.0 ml of 1% barium chloride solution to 97 ml of 1% sulfuric acid. After the standardization, the test pathogens were diluted further in a ratio of 1:1500 with a common salt solution.
(§2) Sixteen milligrams of a particular test compound were put into a 10 ml measuring flask, and the flask was subsequently filled to the mark with solvent. Further dilutions in the series were made with distilled water or the appropriate solvent.
(§3) The cavities of the microtiter plates were filled sequentially with 0.2 ml of nutrient medium, 0.01 ml of the appropriate test compound solution, and then 0.01 ml of the standardized bacteria suspension. The bacteria were incubated at 37° C. for from 18 to 20 hours. Control tests using only the solvent were carried out simultaneously.
(§4) The measurement was carried out macroscopically to determine the minimum inhibitory concentration (the lowest, still bacteriostatically effective concentration).
(§5) The following test organisms were used:
(§6) Staphylococcus aureus SG 511, Escherichia coli ATCC 11 775, Pseudomonas aeruginosa Hamburgensis and Pseudomonas aeruginosa Walter, Serratia marcescens ATCC 13 880, Klebsiella pneumoniea ATCC 10 031 and BC 6, Proteus mirabilis BC 17, Proteus rettgeri BC 7, Enterobacter cloaceae ATCC 13 047, and E. coli R+TEM (β-lactamase carrier), and Klebsiella pneumoniae 1082 E (β-lactamase carrier).
(§7) Representative compounds of the compounds of Formula I were tested. Those representative compounds comprised sodium salts of compounds of Formula I wherein R, D, and Y had the meanings set forth in the following table: […]

[2] = system: Proteus mirabilis BC 17; experiment: as above; type: cell-based; conditions: BC17, Prot. mir. BC 17, 37° C., 18 to 20 hours
Protocol: as §1, §2, §3, §4, §5, §6, §7

[3] = system: Enterobacter cloaceae ATCC 13 047; experiment: as above; type: cell-based; conditions: Enterob. cloacae ATCC 13047, 37° C., 18 to 20 hours
Protocol: as §1, §2, §3, §4, §5, §6, §7

[4] = system: Klebsiella pneumoniae 1082 E (β-lactamase carrier); experiment: as above; type: cell-based; conditions: Klebs. pneum. 1082 E, 37° C., 18 to 20 hours
Protocol: as §1, §2, §3, §4, §5, §6, §7

[5] = system: Escherichia coli ATCC 11 775; experiment: as above; type: cell-based; conditions: E. coli ATCC 11775, 37° C., 18 to 20 hours
Protocol: as §1, §2, §3, §4, §5, §6, §7

[6] = system: Pseudomonas aeruginosa Walter; experiment: as above; type: cell-based; conditions: Pseud. aeru Walter, 37° C., 18 to 20 hours
Protocol: as §1, §2, §3, §4, §5, §6, §7

[7] = system: Pseudomonas aeruginosa Hamburgensis; experiment: as above; type: cell-based; conditions: Pseud. aeru Hbg., 37° C., 18 to 20 hours
Protocol: as §1, §2, §3, §4, §5, §6, §7

[8] = system: Serratia marcescens ATCC 13 880; experiment: as above; type: cell-based; conditions: Serr. marcesc. ATCC 13880, 37° C., 18 to 20 hours
Protocol: as §1, §2, §3, §4, §5, §6, §7

[9] = system: E. coli ATCC 11775; experiment: in vivo test against experimental intraperitoneal infection in mice; set-up: species or system E. coli in female mice of the NMRI strain; conditions: Escherichia coli, ATCC11775, sc, 168 h; subcutaneous, one treatment 1 hour after i.p. infection, observation 7 days; read-out: ED50 (dose at which 50% of the animals survived)
Protocol: A number of the compounds according to the invention were tested in vivo against experimental infections in mice. E. coli ATCC 11775 was used as the pathogenic bacteria. An intraperitoneal infection was produced with 0.2 ml of a bacterial suspension (with 5% mucin), which corresponds to about 1.4×10^6 E. coli bacteria per mouse. Female mice of the NMRI strain were divided up into groups of 10 animals. Two groups were untreated, and the other groups were treated with various doses of the cephalosporins according to the invention, administered subcutaneously, to determine the ED50 (does at which 50% of the animals survived). One treatment was administered 1 hour after the infection.
In both cases, the observation period was 7 days.

[10] = system: Klebsiella pneumoniea ATCC 10 031; experiment: serial dilution test in the microtiter system, minimum inhibitory concentration; type: cell-based, Klebsiella pneumoniae; conditions: Klebs. pneum. ATCC 10031, 37° C., 18 to 20 hours
Protocol: as §1, §2, §3, §4, §5, §6, §7

[11] = system: Klebsiella pneumoniea BC 6; experiment: as above; type: cell-based, Klebsiella pneumoniae; conditions: BC6, Klebs. pneum. BC 6, 37° C., 18 to 20 hours
Protocol: as §1, §2, §3, §4, §5, §6, §7

[12] = system: Prot. rettg. BC 17; experiment: as above; type: cell-based, Proteus rettgeri; conditions: Providencia rettgeri, 37° C., 18 to 20 hours
Protocol: as §1, §2, §3, §4, §5, §6, §7

| Structure (SMILES) | MIC [1] [µg/mL] | MIC [2] [µg/mL] | MIC [3] [µg/mL] | MIC [5] [µg/mL] | MIC [6] [µg/mL] | MIC [7] [µg/mL] | MIC [8] [µg/mL] | MIC [10] [µg/mL] | MIC [11] [µg/mL] | MIC [12] [µg/mL] | MIC [4] [µg/mL] | ED50 [9] [mg/kg] |
| --- | --- | --- | --- | --- | --- | --- | --- | --- | --- | --- | --- | --- |
| Cn1nnnc1SCC1=C(C(=O)O)N2C(=O)[C@@H](NC(=O)C(NC(=O)Nc3cnc(C4CC4)nc3O)c3csc(N)n3)[C@H]2SC1 (some centres unmarked) [A] | 1 (≈ 1.51 µM) | 0.03 (≈ 0.0454 µM) | 0.5 (≈ 0.757 µM) | 0.03 (≈ 0.0454 µM) | 32 (≈ 48.4 µM) | 32 (≈ 48.4 µM) | 0.25 (≈ 0.378 µM) | 0.03 (≈ 0.0454 µM) | 0.06 (≈ 0.0908 µM) | 0.12 (≈ 0.182 µM) | 32 (≈ 48.4 µM) | 0.5 |
| CCCNc1ncc(NC(=O)NC(C(=O)N[C@@H]2C(=O)N3C(C(=O)O)=C(CSc4nnnn4C)CS[C@H]23)c2csc(N)n2)c(O)n1 (some centres unmarked) [B] | 1 (≈ 1.48 µM) | 0.06 (≈ 0.0885 µM) | 0.25 (≈ 0.369 µM) | 0.06 (≈ 0.0885 µM) | 32 (≈ 47.2 µM) | 32 (≈ 47.2 µM) | 0.25 (≈ 0.369 µM) | 0.12 (≈ 0.177 µM) | 0.06 (≈ 0.0885 µM) | 0.12 (≈ 0.177 µM) | 16 (≈ 23.6 µM) | – |
| CCN1CCN(C(=O)N[C@@H](C(=O)N[C@@H]2C(=O)N3C(C(=O)O)=C(CSc4nnnn4C)CS[C@H]23)c2ccc(O)cc2)C(=O)C1=O [Cefaperazone (T 1551), reference compound] | – | – | – | – | – | – | – | – | – | – | – | 3.1 |
| CC(=O)OCC1=C(C(=O)O)N2C(=O)[C@@H](NC(=O)C(NC(=O)Nc3cnc(Nc4ccc(S(N)(=O)=O)cc4)nc3O)c3csc(N)n3)[C@H]2SC1 (some centres unmarked) [Compound E] | 0.5 (≈ 0.68 µM) | 0.12 (≈ 0.163 µM) | 0.25 (≈ 0.34 µM) | 0.03 (≈ 0.0408 µM) | 8 (≈ 10.9 µM) | 16 (≈ 21.8 µM) | 0.12 (≈ 0.163 µM) | 0.06 (≈ 0.0817 µM) | 0.06 (≈ 0.0817 µM) | 0.12 (≈ 0.163 µM) | 32 (≈ 43.6 µM) | 0.1 to 0.3 |
| Cn1nnnc1SCC1=C(C(=O)O)N2C(=O)[C@@H](NC(=O)C(NC(=O)Nc3cnc(NC4CCC(O)CC4)nc3O)c3csc(N)n3)[C@H]2SC1 (some centres unmarked) [D] | 2 (≈ 2.73 µM) | 0.12 (≈ 0.164 µM) | 0.25 (≈ 0.341 µM) | 0.06 (≈ 0.0818 µM) | 16 (≈ 21.8 µM) | 16 (≈ 21.8 µM) | 0.25 (≈ 0.341 µM) | 0.06 (≈ 0.0818 µM) | 0.06 (≈ 0.0818 µM) | 0.12 (≈ 0.164 µM) | 32 (≈ 43.6 µM) | < 0.3 |
| Cn1nnnc1SCC1=C(C(=O)O)N2C(=O)[C@@H](NC(=O)C(NC(=O)Nc3cnc(NCc4ccc(O)cc4)nc3O)c3csc(N)n3)[C@H]2SC1 (some centres unmarked) [G] | 0.5 (≈ 0.674 µM) | 0.03 (≈ 0.0404 µM) | 0.12 (≈ 0.162 µM) | 0.03 (≈ 0.0404 µM) | 8 (≈ 10.8 µM) | 16 (≈ 21.6 µM) | 0.12 (≈ 0.162 µM) | 0.06 (≈ 0.0809 µM) | 0.03 (≈ 0.0404 µM) | 0.06 (≈ 0.0809 µM) | 16 (≈ 21.6 µM) | < 0.2 |

Now from value to compound, other results behind:

| MIC [1] [µg/mL] | MIC [2] [µg/mL] | MIC [3] [µg/mL] | MIC [5] [µg/mL] | MIC [6] [µg/mL] | MIC [7] [µg/mL] | MIC [8] [µg/mL] | MIC [10] [µg/mL] | MIC [11] [µg/mL] | MIC [12] [µg/mL] | Structure (SMILES) | MIC [4] [µg/mL] | ED50 [9] [mg/kg] |
| --- | --- | --- | --- | --- | --- | --- | --- | --- | --- | --- | --- | --- |
| 2 (≈ 2.88 µM) | 0.06 (≈ 0.0865 µM) | 0.5 (≈ 0.721 µM) | 0.06 (≈ 0.0865 µM) | 32 (≈ 46.1 µM) | 32 (≈ 46.1 µM) | 0.25 (≈ 0.36 µM) | 0.25 (≈ 0.36 µM) | 0.12 (≈ 0.173 µM) | 0.25 (≈ 0.36 µM) | Cn1nnnc1SCC1=C(C(=O)O)N2C(=O)[C@@H](NC(=O)C(NC(=O)Nc3cnc(NCCCO)nc3O)c3csc(N)n3)[C@H]2SC1 (some centres unmarked) [C] | 32 (≈ 46.1 µM) | – |
| 0.06 (≈ 0.132 µM) | 4 (≈ 8.8 µM) | > 128 | 4 (≈ 8.8 µM) | > 128 | > 128 | > 128 | 1 (≈ 2.2 µM) | 2 (≈ 4.4 µM) | > 128 | Cc1nnc(SCC2=C(C(=O)O)N3C(=O)[C@@H](NC(=O)Cn4cnnn4)[C@H]3SC2)s1 [Cefazoline, reference compound] | > 128 | – |
| 1 (≈ 2.36 µM) | 0.5 (≈ 1.18 µM) | 32 (≈ 75.4 µM) | 8 (≈ 18.9 µM) | > 128 | > 128 | 8 (≈ 18.9 µM) | 2 (≈ 4.71 µM) | 4 (≈ 9.43 µM) | 2 (≈ 4.71 µM) | CO/N=C(\C(=O)N[C@@H]1C(=O)N2C(C(=O)O)=C(COC(N)=O)CS[C@H]12)c1ccco1 [Cefuroxime, reference compound] | – | > 100 |
| 1 (≈ 1.26 µM) | 0.25 (≈ 0.316 µM) | 0.5 (≈ 0.632 µM) | 0.06 (≈ 0.0759 µM) | 16 (≈ 20.2 µM) | 16 (≈ 20.2 µM) | 0.5 (≈ 0.632 µM) | 0.12 (≈ 0.152 µM) | 0.12 (≈ 0.152 µM) | 0.25 (≈ 0.316 µM) | Cn1nnnc1SCC1=C(C(=O)O)N2C(=O)[C@@H](NC(=O)C(NC(=O)Nc3cnc(Nc4ccc(S(N)(=O)=O)cc4)nc3O)c3csc(N)n3)[C@H]2SC1 (some centres unmarked) [F] | 64 (≈ 80.9 µM) | – |
